{"source": "patent US20100204107A1", "about": "“USE OF URODILATIN AS A THERAPEUTIC AGENT” (priority 2007, published 2010)", "test_system": "Human Peripheral Blood Mononuclear Cells (PBMC)", "assay": "T cell proliferation assay (PHA, 3H-thymidine)", "type": "cell-based", "conditions": "10 micrograms per ml, 3 days plus 12 hours 3H-thymidine"}
{"substance": "Secretin", "values": [{"measurement": "% of PHA induced control", "result": 100.5, "unit": "%"}]}
